Results from US11634390B2, “Agricultural chemicals” (GLOBACHEM NV, priority 2016, dated 2023).
Counter-ions that a name gives are not always drawn.

Experiments:
Format in all cases: in vivo
Parameters in all cases: key to percentage increase in necrosis relative to the control: no detected effect at this concentration; a percentage increase in necrosis relative to the control of 0.1-50; b: a percentage increase in necrosis of 50-80; a percentage increase in necrosis of 80-100
[1] = system: Abutilon theophrasti; experiment: Herbicidal screen, post-emergence spray of seedlings in pots: velvetleaf; conditions: assessed 10 days after treatment; for pest or weed control at 12.5 g/ha / pest or weed control at 25 g/ha / pest or weed control at 50 g/ha / pest or weed control at 100 g/ha: Abutilon theophrasti, post-emergence, 240 h, read-out: percentage increase in necrosis relative to the control
Method: (§1) Compounds were screened at four concentrations (100, 50, 25 and 12.5 g/ha) against four weed species (Stellaria media—Chickweed; Abutilon theophrasti—velvetleaf; Amaranthus retroflexus—common amaranthus; Echinochloa crus-galli—Barnyard grass) and maize as a crop species. Seed were sown in 12.5 cm diameter pots (20 per pot for the weed species and 5 for maize). Seedlings were sprayed with 2 ml of compound two weeks after sowing, with 2 ml water used as the control. Each treatment was replicated three times. Plants were maintained at 20° C. and assessed 10 days after treatment. The assessment was based on the % plant in each pot showing growth. The data is presented in Table 1 in which d represents no detected effect at this concentration; c represents a percentage increase in necrosis relative to the control of 0.1-50; b represents a percentage increase in necrosis of 50-80; and a represents a percentage increase in necrosis of 80-100.

[2] = system: Stellaria media; experiment: Herbicidal screen, post-emergence spray of seedlings in pots: Chickweed; conditions: assessed 10 days after treatment; for pest or weed control at 12.5 g/ha / pest or weed control at 25 g/ha / pest or weed control at 50 g/ha / pest or weed control at 100 g/ha: Stellaria media, post-emergence, 240 h, read-out: percentage increase in necrosis relative to the control
Method: as §1

[3] = system: Echinochloa crus-galli; experiment: Herbicidal screen, post-emergence spray of seedlings in pots: Barnyard grass; conditions: assessed 10 days after treatment; for pest or weed control at 12.5 g/ha / pest or weed control at 25 g/ha / pest or weed control at 50 g/ha / pest or weed control at 100 g/ha: Echinochloa crus-galli, post-emergence, 240 h, read-out: percentage increase in necrosis relative to the control
Method: as §1

[4] = system: maize; experiment: Herbicidal screen, post-emergence spray of seedlings in pots: crop species; conditions: assessed 10 days after treatment; for plant injury at 12.5 g/ha / plant injury at 25 g/ha / plant injury at 50 g/ha / plant injury at 100 g/ha: Zea mays, post-emergence, 240 h, read-out: percentage increase in necrosis relative to the control
Method: as §1

[5] = system: Amaranthus retroflexus; experiment: Herbicidal screen, post-emergence spray of seedlings in pots: common amaranthus; conditions: assessed 10 days after treatment; for pest or weed control at 12.5 g/ha / pest or weed control at 25 g/ha / pest or weed control at 50 g/ha / pest or weed control at 100 g/ha: Amaranthus retroflexus, post-emergence, 240 h, read-out: percentage increase in necrosis relative to the control
Method: as §1

Cn1c(C(F)(F)F)cc(=O)n(-c2cc(C(=O)NS(=O)(=O)C3CNC3)c(Cl)cc2F)c1=O [Example 6, N-(Azetidin-3-ylsulfonyl)-2-chloro-4-fluoro-5-(3-methyl-2,6-dioxo-4-(trifluoromethyl)-3,6-dihydropyrimidin-1(2H)-yl)benzamide hydrochloride]
pest or weed control at 12.5 g/ha ([1]; 12.5 g/ha): 0.1 to 50% | pest or weed control at 25 g/ha [1]: 0.1 to 50% | pest or weed control at 50 g/ha [1]: 50 to 80% | pest or weed control at 100 g/ha [1]: 50 to 80% | pest or weed control at 12.5 g/ha ([2]; 12.5 g/ha): 0.1 to 50% | pest or weed control at 25 g/ha ([2]; 25 g/ha): 0.1 to 50% | pest or weed control at 50 g/ha ([2]; 50 g/ha): 0.1 to 50% | pest or weed control at 100 g/ha [2]: 50 to 80% | pest or weed control at 12.5 g/ha ([3]; 12.5 g/ha): 0.1 to 50% | pest or weed control at 25 g/ha ([3]; 25 g/ha): 0.1 to 50% | pest or weed control at 50 g/ha [3]: 0.1 to 50% | pest or weed control at 100 g/ha [3]: 0.1 to 50% | plant injury at 12.5 g/ha ([4]; 12.5 g/ha): 0.1 to 50% | plant injury at 25 g/ha ([4]; 25 g/ha): 0.1 to 50% | plant injury at 50 g/ha [4]: 0.1 to 50% | plant injury at 100 g/ha [4]: 0.1 to 50% | pest or weed control at 12.5 g/ha ([5]; 12.5 g/ha): 50 to 80% | pest or weed control at 25 g/ha ([5]; 25 g/ha): 50 to 80% | pest or weed control at 50 g/ha [5]: 80 to 100% | pest or weed control at 100 g/ha [5]: 80 to 100%

Cn1c(C(F)(F)F)cc(=O)n(-c2cc(C(=O)NS(=O)(=O)C3CCNC3)c(Cl)cc2F)c1=O (stereo not drawn) [Example 4, 2-Chloro-4-fluoro-5-(3-methyl-2,6-dioxo-4-(trifluoromethyl)-3,6-dihydropyrimidin-1(2H)-yl)-N-(pyrrolidin-3-ylsulfonyl)benzamide hydrochloride]
pest or weed control at 12.5 g/ha ([1]; 12.5 g/ha): 0.1 to 50% | pest or weed control at 25 g/ha [1]: 0.1 to 50% | pest or weed control at 50 g/ha [1]: 0.1 to 50% | pest or weed control at 100 g/ha [1]: 50 to 80% | pest or weed control at 12.5 g/ha ([2]; 12.5 g/ha): 0.1 to 50% | pest or weed control at 25 g/ha ([2]; 25 g/ha): 0.1 to 50% | pest or weed control at 50 g/ha ([2]; 50 g/ha): 0.1 to 50% | pest or weed control at 100 g/ha [2]: 50 to 80% | pest or weed control at 12.5 g/ha ([3]; 12.5 g/ha): 0.1 to 50% | pest or weed control at 25 g/ha ([3]; 25 g/ha): 0.1 to 50% | pest or weed control at 50 g/ha [3]: 0.1 to 50% | pest or weed control at 100 g/ha [3]: 0.1 to 50% | plant injury at 12.5 g/ha ([4]; 12.5 g/ha): 0.1 to 50% | plant injury at 25 g/ha ([4]; 25 g/ha): 0.1 to 50% | plant injury at 50 g/ha [4]: 0.1 to 50% | plant injury at 100 g/ha [4]: 0.1 to 50% | pest or weed control at 12.5 g/ha ([5]; 12.5 g/ha): 50 to 80% | pest or weed control at 25 g/ha ([5]; 25 g/ha): 50 to 80% | pest or weed control at 50 g/ha [5]: 80 to 100% | pest or weed control at 100 g/ha [5]: 80 to 100%

Cn1c(C(F)(F)F)cc(=O)n(-c2cc(C(=O)NS(=O)(=O)C3CC3)c(F)cc2F)c1=O [Example 8, N-(Cyclopropylsulfonyl)-2,4-difluoro-5-(3-methyl-2,6-dioxo-4-(trifluoromethyl)-3,6-dihydropyrimidin-1(2H)-yl)benzamide]
pest or weed control at 12.5 g/ha ([1]; 12.5 g/ha): 0.1 to 50% | pest or weed control at 25 g/ha [1]: 0.1 to 50% | pest or weed control at 50 g/ha [1]: 50 to 80% | pest or weed control at 100 g/ha [1]: 50 to 80% | pest or weed control at 12.5 g/ha ([2]; 12.5 g/ha): 0.1 to 50% | pest or weed control at 25 g/ha ([2]; 25 g/ha): 0.1 to 50% | pest or weed control at 50 g/ha ([2]; 50 g/ha): 0.1 to 50% | pest or weed control at 100 g/ha [2]: 50 to 80% | pest or weed control at 12.5 g/ha ([3]; 12.5 g/ha): 0.1 to 50% | pest or weed control at 25 g/ha ([3]; 25 g/ha): 0.1 to 50% | pest or weed control at 50 g/ha [3]: 50 to 80% | pest or weed control at 100 g/ha [3]: 50 to 80% | plant injury at 12.5 g/ha ([4]; 12.5 g/ha): 0.1 to 50% | plant injury at 25 g/ha ([4]; 25 g/ha): 0.1 to 50% | plant injury at 50 g/ha [4]: 0.1 to 50% | plant injury at 100 g/ha [4]: 0.1 to 50% | pest or weed control at 12.5 g/ha ([5]; 12.5 g/ha): 0.1 to 50% | pest or weed control at 25 g/ha ([5]; 25 g/ha): 0.1 to 50% | pest or weed control at 50 g/ha [5]: 80 to 100% | pest or weed control at 100 g/ha [5]: 80 to 100%

Cn1c(C(F)(F)F)cc(=O)n(-c2cc(C(=O)NS(=O)(=O)C3CC3)c(Cl)cc2F)c1=O [Example 12, 2-Chloro-N-(cyclopropylsulfonyl)-4-fluoro-5-(3-methyl-2,6-dioxo-4-(trifluoromethyl)-3,6-dihydropyrimidin-1(2H)-yl)benzamide]
pest or weed control at 12.5 g/ha ([1]; 12.5 g/ha): 0.1 to 50% | pest or weed control at 25 g/ha [1]: 0.1 to 50% | pest or weed control at 50 g/ha [1]: 0.1 to 50% | pest or weed control at 100 g/ha [1]: 50 to 80% | pest or weed control at 12.5 g/ha ([2]; 12.5 g/ha): 0.1 to 50% | pest or weed control at 25 g/ha ([2]; 25 g/ha): 0.1 to 50% | pest or weed control at 50 g/ha ([2]; 50 g/ha): 0.1 to 50% | pest or weed control at 100 g/ha [2]: 0.1 to 50% | pest or weed control at 12.5 g/ha ([3]; 12.5 g/ha): 0.1 to 50% | pest or weed control at 25 g/ha ([3]; 25 g/ha): 0.1 to 50% | pest or weed control at 50 g/ha [3]: 0.1 to 50% | pest or weed control at 100 g/ha [3]: 0.1 to 50% | plant injury at 12.5 g/ha ([4]; 12.5 g/ha): 0.1 to 50% | plant injury at 25 g/ha ([4]; 25 g/ha): 0.1 to 50% | plant injury at 50 g/ha [4]: 0.1 to 50% | plant injury at 100 g/ha [4]: 0.1 to 50% | pest or weed control at 12.5 g/ha ([5]; 12.5 g/ha): 50 to 80% | pest or weed control at 25 g/ha ([5]; 25 g/ha): 50 to 80% | pest or weed control at 50 g/ha [5]: 80 to 100% | pest or weed control at 100 g/ha [5]: 80 to 100%

Cn1c(C(F)(F)F)cc(=O)n(-c2cc(C(=O)NS(=O)(=O)C3CC3)ccc2F)c1=O [Example 15, N-(Cyclopropylsulfonyl)-4-fluoro-3-(3-methyl-2,6-dioxo-4-(trifluoromethyl)-3,6-dihydropyrimidin-1(2H)-yl)benzamide]
percentage increase in necrosis relative to the control ([1]; 12.5 g/ha): d | pest or weed control at 25 g/ha [1]: 0.1 to 50% | pest or weed control at 50 g/ha [1]: 50 to 80% | pest or weed control at 100 g/ha [1]: 50 to 80% | percentage increase in necrosis relative to the control ([2]; 12.5 g/ha): d | percentage increase in necrosis relative to the control ([2]; 25 g/ha): d | percentage increase in necrosis relative to the control ([2]; 50 g/ha): d | pest or weed control at 100 g/ha [2]: 0.1 to 50% | percentage increase in necrosis relative to the control ([3]; 12.5 g/ha): d | percentage increase in necrosis relative to the control ([3]; 25 g/ha): d | pest or weed control at 50 g/ha [3]: 0.1 to 50% | pest or weed control at 100 g/ha [3]: 0.1 to 50% | percentage increase in necrosis relative to the control ([4]; 12.5 g/ha): d | percentage increase in necrosis relative to the control ([4]; 25 g/ha): d | plant injury at 50 g/ha [4]: 0.1 to 50% | plant injury at 100 g/ha [4]: 0.1 to 50% | percentage increase in necrosis relative to the control ([5]; 12.5 g/ha): d | percentage increase in necrosis relative to the control ([5]; 25 g/ha): d | pest or weed control at 50 g/ha [5]: 50 to 80% | pest or weed control at 100 g/ha [5]: 50 to 80%

Cn1c(C(F)(F)F)cc(=O)n(-c2cc(C(=O)NS(=O)(=O)C3CCS(=O)(=O)C3)c(Cl)cc2F)c1=O (stereo not drawn) [Example 10, 2-Chloro-N-((1,1-dioxidotetrahydrothiophen-3-yl)sulfonyl)-4-fluoro-5-(3-methyl-2,6-dioxo-4-(trifluoromethyl)-3,6-dihydropyrimidin-1(2H)-yl)benzamide]
pest or weed control at 12.5 g/ha ([1]; 12.5 g/ha): 0.1 to 50% | pest or weed control at 25 g/ha [1]: 0.1 to 50% | pest or weed control at 50 g/ha [1]: 0.1 to 50% | pest or weed control at 100 g/ha [1]: 0.1 to 50% | pest or weed control at 12.5 g/ha ([2]; 12.5 g/ha): 0.1 to 50% | pest or weed control at 25 g/ha ([2]; 25 g/ha): 0.1 to 50% | pest or weed control at 50 g/ha ([2]; 50 g/ha): 0.1 to 50% | pest or weed control at 100 g/ha [2]: 0.1 to 50% | pest or weed control at 12.5 g/ha ([3]; 12.5 g/ha): 0.1 to 50% | pest or weed control at 25 g/ha ([3]; 25 g/ha): 0.1 to 50% | pest or weed control at 50 g/ha [3]: 0.1 to 50% | pest or weed control at 100 g/ha [3]: 0.1 to 50% | plant injury at 12.5 g/ha ([4]; 12.5 g/ha): 0.1 to 50% | plant injury at 25 g/ha ([4]; 25 g/ha): 0.1 to 50% | plant injury at 50 g/ha [4]: 0.1 to 50% | plant injury at 100 g/ha [4]: 0.1 to 50% | pest or weed control at 12.5 g/ha ([5]; 12.5 g/ha): 50 to 80% | pest or weed control at 25 g/ha ([5]; 25 g/ha): 50 to 80% | pest or weed control at 50 g/ha [5]: 50 to 80% | pest or weed control at 100 g/ha [5]: 50 to 80%
